This note sets out measurements from patent US7183324B2, “2,3,4-substituted cyclopentanones as therapeutic agents” (Allergan, Inc., priority 2004, dated 2007).

Bounds are passed on as bounds.

The target of experiment [1] is T1, hEP4/Gqs5 (Homo sapiens, UniProt P35408).
T1 construct: expressed in transfected cells; host or cells: HEK-293 (EBNA)
The experiment is described as follows: FLIPR calcium signal, hEP4/Gqs5. Type of experiment: cell-based. The conditions noted are these: HEK-293 (EBNA) cells, read-out: FUNCTIONAL EC50 HEP4. The protocol: (§1) HEK-293 (EBNA) cells, stably expressing one type or subtype of recombinant human prostaglandin receptors (prostaglandin receptors expressed: hDP/Gqs5; hEP1; hEP2/Gqs5; hEP3A/Gqi5; hEP4/Gqs5; hFP; hIP; hTP), were cultured in 100 mm culture dishes in high-glucose DMEM medium containing 10% fetal bovine serum, 2 mM 1-glutamine, 250 μg/ml geneticin (G418) and 200 μg/ml hygromycin B as selection markers, and 100 units/ml penicillin G, 100 μg/ml streptomycin and 0.25 μg/ml amphotericin B. • (b) Calcium Signal Studies on the FLIPR™
(§2) Cells were seeded at a density of 5×10^4 cells per well in Biocoat® Poly-D-lysine-coated black-wall, clear-bottom 96-well plates (Becton-Dickinson) and allowed to attach overnight in an incubator at 37° C. Cells were then washed two times with HBSS-HEPES buffer (Hanks Balanced Salt Solution without bicarbonate and phenol red, 20 mM HEPES, pH 7.4) using a Denley Cellwash plate washer (Labsystems). After 45 minutes of dye-loading in the dark, using the calcium-sensitive dye Fluo-4 AM at a final concentration of 2 μM, plates were washed four times with HBSS-HEPES buffer to remove excess dye leaving 100 μl in each well. Plates were re-equilibrated to 37° C. for a few minutes.
(§3) Cells were excited with an Argon laser at 488 nm, and emission was measured through a 510–570 nm bandwidth emission filter (FLIPR™, Molecular Devices, Sunnyvale, Calif.). Drug solution was added in a 50 μl volume to each well to give the desired final concentration. The peak increase in fluorescence intensity was recorded for each well. On each plate, four wells each served as negative (HBSS-HEPES buffer) and positive controls (standard agonists: BW245C (hDP); PGE2 (hEP1; hEP2/Gqs5; hEP3A/Gqi5; hEP4/Gqs5); PGF2α (hFP); carbacyclin (hIP); U46619 (hTP), depending on receptor). The peak fluorescence change in each drug-containing well was then expressed relative to the controls.
(§4) Compounds were tested in a high-throughput (HTS) or concentration-response (CoRe) format. In the HTS format, forty-four compounds per plate were examined in duplicates at a concentration of 10^−5 M. To generate concentration-response curves, four compounds per plate were tested in duplicates in a concentration range between 10^−5 and 10^−11 M. The duplicate values were averaged. In either, HTS or CoRe format each compound was tested on at least 3 separate plates using cells from different passages to give an n≧3.

The target of experiment [2] is T2, HEP4 (Homo sapiens, UniProt P35408).
T2 construct: expressed in transfected cells; host or cells: HEK-293
T2 sequence (P35408 whole entry): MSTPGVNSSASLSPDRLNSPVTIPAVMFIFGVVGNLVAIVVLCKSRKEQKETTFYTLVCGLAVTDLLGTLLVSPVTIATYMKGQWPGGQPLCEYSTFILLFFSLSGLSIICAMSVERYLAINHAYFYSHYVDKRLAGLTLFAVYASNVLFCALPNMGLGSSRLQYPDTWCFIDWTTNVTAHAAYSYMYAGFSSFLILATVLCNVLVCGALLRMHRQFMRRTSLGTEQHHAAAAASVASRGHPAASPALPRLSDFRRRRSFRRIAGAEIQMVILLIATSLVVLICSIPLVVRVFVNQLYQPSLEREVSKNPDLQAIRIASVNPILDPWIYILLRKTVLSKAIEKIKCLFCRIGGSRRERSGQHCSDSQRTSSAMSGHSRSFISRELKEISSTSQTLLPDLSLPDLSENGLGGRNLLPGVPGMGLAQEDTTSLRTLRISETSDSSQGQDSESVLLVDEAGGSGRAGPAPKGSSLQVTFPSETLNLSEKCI
The experiment is described as follows: Radioligand binding, EP4 receptor. The settings on record: [3H]PGE2 5 nM, HEK-293 membranes. The protocol:
(§5) HEK-293 cells stably expressing the human or feline FP receptor, or EP1, EP2, or EP4 receptors were washed with TME buffer, scraped from the bottom of the flasks, and homogenized for 30 sec using a Brinkman PT 10/35 polytron. TME buffer was added to achieve a final 40 ml volume in the centrifuge tubes (the composition of TME is 100 mM TRIS base, 20 mM MgCl2, […]; 10N HCl is added to achieve a pH of 7.4).
(§6) The cell homogenate was centrifuged at 19000 r.p.m. for 20 min at 4° C. using a Beckman Ti-60 rotor. The resultant pellet was resuspended in TME buffer to give a final 1 mg/ml protein concentration, as determined by Biorad assay. Radioligand binding competition assays vs. [^3H-]17-phenyl PGF2α (5 nM) were performed in a 100 μl volume for 60 min. Binding reactions were started by adding plasma membrane fraction. The reaction was terminated by the addition of 4 ml ice-cold TRIS-HCl buffer and rapid filtration through glass fiber GF/B filters using a Brandel cell harvester. The filters were washed 3 times with ice-cold buffer and oven dried for one hour. Non-specific binding was determined with 10 uM unlabeled 17-phenyl PGF2α.
(§7) [^3H-] PGE2 (5 nM; specific activity 180 Ci mmol) was used as the radioligand for EP receptors. Binding studies employing EP1, EP2, EP3, EP4 were performed in duplicate in at least three separate experiments. A 200 μl assay volume was used. Incubations were for 60 min at 25° C. and were terminated by the addition of 4 ml of ice-cold 50 mM TRIS-HCl, followed by rapid filtration through Whatman GF/B filters and three additional 4 ml washes in a cell harvester (Brandel). Non-specific binding determined with 10^−5M of unlabeled PGE2.

The target in experiment [3] is T3, hEP3A/Gqi5 (Homo sapiens, UniProt P43115).
T3 construct: expressed in transfected cells; host or cells: HEK-293 (EBNA)
T3 sequence (P43115 1-390): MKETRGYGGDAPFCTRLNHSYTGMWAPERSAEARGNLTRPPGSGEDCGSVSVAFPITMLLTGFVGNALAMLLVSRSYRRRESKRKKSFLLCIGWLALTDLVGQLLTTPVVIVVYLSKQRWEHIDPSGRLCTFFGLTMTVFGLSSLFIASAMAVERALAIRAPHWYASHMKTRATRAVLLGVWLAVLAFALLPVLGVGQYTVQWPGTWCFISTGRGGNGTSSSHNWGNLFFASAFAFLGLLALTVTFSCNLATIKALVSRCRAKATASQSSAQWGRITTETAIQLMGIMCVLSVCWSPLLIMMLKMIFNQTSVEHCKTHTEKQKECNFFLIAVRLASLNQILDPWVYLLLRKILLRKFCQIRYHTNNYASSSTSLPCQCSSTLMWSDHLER
The experiment can be described thus: FLIPR calcium signal, hEP3A/Gqi5. Type of experiment: cell-based. The settings on record: HEK-293 (EBNA) cells, read-out: FUNCTIONAL EC50 HEP3A. The protocol:
as §1, §2, §3, §4

Experiment [4] deals with T4, HEP3D (Homo sapiens, UniProt P43115).
T4 sequence (P43115 1-374 isoform P43115-4): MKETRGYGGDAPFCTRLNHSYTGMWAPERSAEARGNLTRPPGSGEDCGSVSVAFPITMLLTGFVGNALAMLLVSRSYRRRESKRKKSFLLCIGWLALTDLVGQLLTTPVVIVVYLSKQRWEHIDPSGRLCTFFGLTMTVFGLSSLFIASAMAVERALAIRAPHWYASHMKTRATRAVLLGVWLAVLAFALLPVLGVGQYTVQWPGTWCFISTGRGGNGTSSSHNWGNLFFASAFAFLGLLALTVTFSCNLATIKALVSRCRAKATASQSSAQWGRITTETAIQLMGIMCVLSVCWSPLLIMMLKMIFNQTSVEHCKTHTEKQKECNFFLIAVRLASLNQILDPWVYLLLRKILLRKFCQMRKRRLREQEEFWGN
The experiment can be described thus: Radioligand binding, EP3 receptor. The settings on record: [3H]PGE2 5 nM. The protocol:
as §5, §6, §7

T1 sequence (P35408 whole entry): as the sequence (P35408 whole entry) above

Usually EC50 stands for the concentration at which the effect is half-maximal. As usually defined, the IC50 is the concentration at which inhibition is half-maximal. A low value points to inhibition by little substance. With `O=C(O)CSCCCS[C@H]1C(=O)C[C@@H](CO)[C@@H]1/C=C/C(O)CCc1cc2ccccc2s1` (single isomer, unassigned) [drawing 31], the EC50 in experiment [1] was 363 nM. The IC50 in experiment [2] came to 1300 nM.

Consider `O=C(O)CSCCCS[C@H]1C(=O)C[C@@H](CO)[C@@H]1/C=C/C(O)CCc1cc2ccccc2s1` (single isomer, unassigned) [drawing 32], for which, in experiment [1], the EC50 is 463 nM. The IC50 in experiment [2] is 100 nM.

Consider `COC(=O)CSCCCS[C@H]1C(=O)C[C@@H](CO)[C@@H]1/C=C/C(O)CCc1ccc2ccccc2c1` (single isomer, unassigned) [drawing 38], for which, in experiment [1], the EC50 is 2340 nM. Also, the IC50 in experiment [2] came to 1600 nM.

In the case of `COC(=O)CSCCCS[C@H]1C(=O)C[C@@H](CO)[C@@H]1/C=C/C(O)Cc1ccccc1` (single isomer, unassigned) [drawing 42], the EC50 in experiment [1] is 106 nM. Moreover, the IC50 in experiment [2] was determined as 195 nM.

For the compound `COC(=O)CSCCCS[C@H]1C(=O)C[C@@H](CO)[C@@H]1/C=C/C(O)Cc1ccccc1` (single isomer, unassigned) [drawing 43], the EC50 in experiment [1] is 2090 nM. Moreover, the IC50 in experiment [2] amounted to 1050 nM.

For `COC(=O)CSCCCS[C@H]1C(=O)CC[C@@H]1/C=C/C(O)Cc1ccccc1` (single isomer, unassigned) [drawing 45], the EC50 in experiment [1] is 15 nM. In experiment [2], the IC50 amounted to 141 nM.

As for `O=C(O)CSCCCS[C@H]1C(=O)CC[C@@H]1/C=C/C(O)Cc1ccccc1` (single isomer, unassigned) [drawing 47], the EC50 was 60 nM in experiment [1] and above 10000 nM in experiment [3]. For the same compound, the IC50 was 55 nM in experiment [2] and above 10000 nM in experiment [4].

For the compound `O=C(O)CSCCCS[C@H]1C(=O)C[C@@H](CO)[C@@H]1/C=C/C(O)Cc1ccccc1` (single isomer, unassigned) [drawing 50], the EC50 in experiment [1] was determined as 135 nM. This compound also registered an IC50 in experiment [2] of 440 nM.

With `COC(=O)CSCCCS[C@H]1C(=O)CC[C@@H]1/C=C/C(O)CCc1cc2ccccc2s1` (stereo partly drawn) [drawing 27, {3-[(1R,2R)-2-((E)-5-Benzo[b]thiophen-2-yl-3-hydroxy-pent-1-enyl)-5-oxo-cyclopentylsulfanyl]-propylsulfanyl}-acetic acid methyl ester], the concentration for a half-maximal effect (EC50) in experiment [1] came to 7.8 nM. In addition, the IC50 in experiment [2] turned out to be 300 nM.

Regarding `COC(=O)CSCCCS[C@H]1C(=O)C[C@@H](CO)[C@@H]1/C=C/C(O)CCc1cc2ccccc2s1` (stereo partly drawn) [drawing 29, {3-[(1R,2S,3R)-2-((E)-5-Benzo[b]thiophen-2-yl-3-hydroxy-pent-1-enyl)-3-hydroxymethyl-5-oxo-cyclopentylsulfanyl]-propylsulfanyl}-acetic acid methyl ester], in experiment [1], the EC50 turned out to be 7940 nM. The compound also came in with an IC50 in experiment [2] of 2100 nM.

`COC(=O)CSCCCS[C@H]1C(=O)C[C@@H](CO)[C@@H]1/C=C/C(O)CCc1cc2ccccc2s1` (stereo partly drawn) [drawing 30, {3-[(1R,2S,3R)-2-((E)-5-Benzo[b]thiophen-2-yl-3-hydroxy-pent-1-enyl)-3-hydroxymethyl-5-oxo-cyclopentylsulfanyl]-propylsulfanyl}-acetic acid methyl ester]: in experiment [1], the EC50 was above 10000 nM. The compound also returned an IC50 in experiment [2] of 1900 nM.

As for `COC(=O)CSCCCS[C@H]1C(=O)CC[C@@H]1/C=C/C(O)CCc1ccc2ccccc2c1` (stereo partly drawn) [drawing 34, {3-[(1R,2R)-2-((E)-3-Hydroxy-5-naphthalen-2-yl-pent-1-enyl)-5-oxo-cyclopentylsulfanyl]-propylsulfanyl}-acetic acid methyl ester], the EC50 in experiment [1] is 0.5 nM. The IC50 in experiment [2] was found to be 300 nM.

Take `COC(=O)CSCCCS[C@H]1C(=O)CC[C@@H]1/C=C/C(O)CCc1ccc2ccccc2c1` (stereo partly drawn) [drawing 35, {3-[(1R,2R)-2-((E)-3-Hydroxy-5-naphthalen-2-yl-pent-1-enyl)-5-oxo-cyclopentylsulfanyl]-propylsulfanyl}-acetic acid methyl ester]: the EC50 in experiment [1] came to 0.6 nM. This compound also showed an IC50 in experiment [2] of 200 nM.

With `O=C(O)CSCCCS[C@H]1C(=O)C[C@@H](CO)[C@@H]1/C=C/C(O)CCc1ccc2ccccc2c1` (stereo partly drawn) [drawing 40, {3-[(1R,2S,3R)-3-Hydroxymethyl-2-((E)-3-hydroxy-5-naphthalen-2-yl-pent-1-enyl)-5-oxo-cyclopentylsulfanyl]-propylsulfanyl}-acetic acid], the EC50 in experiment [1] turned out to be 465 nM. The IC50 in experiment [2] turned out to be 1000 nM.

As for `COC(=O)CSCCCS[C@H]1C(=O)CC[C@@H]1/C=C/C(C)(O)CCc1ccc2ccccc2c1` (stereo partly drawn) [{3-[(1R,2R)-2-((E)-3-Hydroxy-3-methyl-5-naphthalen-2-yl-pent-1-enyl)-5-oxo-cyclopentylsulfanyl]-propylsulfanyl}-acetic acid methyl ester], in experiment [1], the EC50 was 46 nM. Also, the IC50 in experiment [2] turned out to be 500 nM.

In the case of `COC(=O)CSCCCS[C@H]1C(=O)CC[C@@H]1/C=C/C(O)Cc1ccc2ccccc2c1` (stereo partly drawn) [{3-[(1R,2R)-2-((E)-3-Hydroxy-4-naphthalen-2-yl-but-1-enyl)-5-oxo-cyclopentylsulfanyl]-propylsulfanyl}-acetic acid methyl ester], the IC50 in experiment [2] was 83 nM; in experiment [4], above 10000 nM.
